Test results from patent US20070021509A1, “Phosphate transport inhibitors” (priority 2001, published 2007).

The compounds below were run on phosphate uptake by rabbit intestinal Brush Border Membrane Vesicles (BBMV) (assay: 33PO4 uptake in rabbit intestinal BBMV (HTS), phosphate transporter inhibition in vitro). Settings: Table 3, 100 μM compound.
Assay type: biochemical
Method: The following example outlines the procedures required for in vitro measurement of the inhibition of phosphate uptake by rabbit intestinal Brush Border Membrane Vesicles (BBMV).
Rabbit Intestinal Brush Border Membrane Vesicles (BBMV) were isolated from mucosal scrapings of the upper small intestine (duodenum) of male New Zealand White rabbits. The scrapings were divided into 2 g aliquots in cryopreservation vials, frozen in liquid nitrogen, and stored at −80° C.
The following procedure was performed for each 2 g sample of BBMV mucosal scraping. Buffer volumes and container sizes were adjusted appropriately for the number of 2 g samples used. The entire preparation was performed on ice, unless otherwise stated.
Mucosal scrapings (2 g per tube) were thawed in a 37° C. water bath for 3 minutes and then placed on ice. The scrapings were suspended with a total of 7.5 ml of 300 MET, and transferred to a 250 mL Corning tube on ice. To the suspension was added 30 mL cold (4° C.) deionized water (dH20). The suspension was homogenized with a tissue homogenizer (Polytron) on high speed for 2 minutes. A stir bar and MgCl2 (81.3 mg) was added. The suspension was mixed well by inverting the closed tube. The suspension was stirred on ice, ensuring that a good vortex is achieved with the stir bar, for 40 minutes. The suspension was transferred to a chilled centrifuge tube and spun at 4000×g for 15 minutes. The supernatant was transferred to a new chilled centrifuge tube and spun at 32000×g for 30 minutes. The supernatant was discarded and the pellet was re-suspended with 34 mL cold 60 MET. The suspension was homogenized with a Dounce homogenizer with 8 strokes. The suspension was transferred to a fresh 250 mL Corning tube. A stir bar and 69.1 mg MgCl2 were added. The suspension was stirred well on ice for 10 minutes. The suspension was transferred to a chilled centrifuge tube and spun at 4000×g for 15 minutes. The supernatant was transferred to a new chilled centrifuge tube and spun at 32000×g for 30 minutes. The supernatant was discarded. At this stage, the preparation could be continued or this pellet (P4) could be frozen in liquid nitrogen and stored at −80° C. When needed, this pellet could be allowed to thaw at room temperature for 5 minutes. Continuing the preparation, the pellet was re-suspended with 34 mL cold 280 MH. The suspension was homogenized in a Dounce homogenize with 8 strokes. The suspension was transferred to a new chilled centrifuge tube and spun at 32000×g for 30 minutes. The supernatant was discarded. To the pellet was added 500 μL 280 MH and the pellet was re-suspended very carefully with a 1 mL tuberculin syringe with a 25-gauge needle with care not to create bubbles. Once the entire pellet was suspended, the suspension was transferred to a chilled 1.5 mL microfuge tube. The suspension was evenly dispersed by bringing the suspension up into the syringe through the 25-gauge needle, and back out again 8 times with care not to create bubbles. The total protein concentration was determined by performing a Bradford Protein Assay. Using that value, the BBMV were diluted with 280 MH to reach approximately 0.5-2.0 mg/mL. The solution was used as soon as possible for uptake studies.
The following experiment was performed using a Beckman Multimek 96-tip robotic pipettor. The following outlines the preparation required to screen one 96-well plate of compounds. However, multiple plates could be screened in one experiment.
To the “Uptake Buffers” was added ^33PO4 to reach 200,000 CPM/19 μL. The buffer solutions were stored at room temperature. The following control solutions were prepared and placed into appropriate wells of a polypropylene, 96-well V-bottom plate (“Hot Stock Plate”):
a. Maximum activity (MAX)−Na Uptake buffer+^33PO4 at 200,000 CPM/19 μL
b. Midline activity (MID)−MAX+100 μM KH2PO4, pH 7.4
c. Minimum activity (MIN)− K Uptake buffer+^33PO4 at 200,000 CPM/19 μL

Structure (SMILES) | % Inhib. At 100 μM [%]
CN(C)c1ccc(NS(=O)(=O)c2cc(C(F)(F)F)cc(C(F)(F)F)c2)cc1 [Compound 130] | 81
O=S(=O)(Nc1ccc(C(F)(F)F)cc1)c1ccc(NS(=O)(=O)c2ccc(C(F)(F)F)cc2)cc1 [Compound 131] | 80
O=S(=O)(Nc1cccc(Cl)c1)c1ccc(OC(F)(F)F)cc1 [Compound 132] | 79
O=S(=O)(NCc1ccccc1Cl)c1ccc(OC(F)(F)F)cc1 [Compound 133] | 77
O=S(=O)(Nc1ccccc1-n1cccc1)c1ccc(OC(F)(F)F)cc1 [Compound 134] | 76
O=S(=O)(c1ccccc1)n1ccc2ccccc21 [Compound 135] | 76
Nc1cc(Br)ccc1N(c1ccc(OC(F)(F)F)cc1)S(=O)(=O)c1ccc(OC(F)(F)F)cc1 [Compound 136] | 76
CCOC(=O)c1cc2cccc(NS(=O)(=O)c3ccc(OC(F)(F)F)cc3)c2[nH]1 [Compound 137] | 74
CC(C)(C)c1ccc(NS(=O)(=O)c2ccc(OC(F)(F)F)cc2)cc1 [Compound 138] | 71
O=S(=O)(c1ccc(Cl)cc1)N1CCCc2ccccc21 [Compound 139] | 70
O=S(=O)(c1ccc(Cl)cc1)N1CCc2ccccc21 [Compound 140] | 69
Cc1ccc2c(c1)CCCN2S(=O)(=O)c1ccc(C(C)(C)C)cc1 [Compound 141] | 68
Cc1ccc(NS(=O)(=O)c2ccc(OC(F)(F)F)cc2)cc1 [Compound 142] | 67
O=S(=O)(c1ccccc1)n1nnc2ccccc21 [Compound 143] | 64
Cc1cc(C)c(S(=O)(=O)n2cc(/C=C/C(=O)O)c3ccccc32)c(C)c1 [Compound 144] | 64
O=S(=O)(Nc1cc(C(F)(F)F)c(Cl)cc1Cl)c1cc(C(F)(F)F)cc(C(F)(F)F)c1 [Compound 146] | 62
O=[N+]([O-])c1cc(Br)ccc1NS(=O)(=O)c1ccc(OC(F)(F)F)cc1 [Compound 147] | 61
O=c1sc2ccccc2n1S(=O)(=O)c1ccccc1 [Compound 148] | 60
O=S(=O)(Nc1ccccc1Br)c1ccc(OC(F)(F)F)cc1 [Compound 149] | 57
Nc1cc(Br)ccc1NS(=O)(=O)c1ccc(OC(F)(F)F)cc1 [Compound 150] | 57
O=S(=O)(Nc1c(F)cc(Br)cc1F)c1ccc(OC(F)(F)F)cc1 [Compound 151] | 54
Cc1ccc(S(=O)(=O)N2CCC(=O)c3ccc(Cl)cc32)cc1 [Compound 152] | 54
O=S(=O)(NCc1ccc(F)cc1F)c1ccc(OC(F)(F)F)cc1 [Compound 153] | 53

Structure (SMILES) | % Inhib. At 100 μM [%]
Cc1ccc(S(=O)(=O)n2cc(/C=C/C(=O)O)c3ccccc32)cc1 [Compound 154] | 52
O=S(=O)(c1ccc2ccccc2c1)N1CCc2ccccc21 [Compound 155] | 51
O=[N+]([O-])c1ccc(NS(=O)(=O)c2ccc(OC(F)(F)F)cc2)cc1 [Compound 156] | 46
C[S+]([O-])c1ccc2c(c1)CCN2S(=O)(=O)c1cccc(C(F)(F)F)c1 (stereo not shown) [Compound 157] | 37
CC(=O)Nc1ccc(S(=O)(=O)N2CCCc3ccccc32)cc1 [Compound 158] | 37
O=S(=O)(Nc1ccccc1)c1ccccc1 [Compound 159] | 36
O=[N+]([O-])c1cc(Br)ccc1N(c1ccc(OC(F)(F)F)cc1)S(=O)(=O)c1ccc(OC(F)(F)F)cc1 [Compound 160] | 34
O=C1OCc2ccc(NS(=O)(=O)c3ccc(C(F)(F)F)cc3)cc21 [Compound 161] | 29
O=S(=O)(Nc1ccc(F)cc1F)c1cc(C(F)(F)F)cc(C(F)(F)F)c1 [Compound 162] | 29
Cc1ccc(CNS(=O)(=O)c2ccc(OC(F)(F)F)cc2)cc1 [Compound 163] | 26
O=[N+]([O-])c1ccc(S(=O)(=O)n2cnc3ccccc32)cc1 [Compound 164] | 26
COc1ccc2c(c1)C(=O)CCN2S(=O)(=O)c1ccc(C)cc1 [Compound 165] | 25
NC(=O)c1ccccc1NS(=O)(=O)c1ccc(OC(F)(F)F)cc1 [Compound 166] | 22
CSc1ccc(N(c2ccc(OC(F)(F)F)cc2)S(=O)(=O)c2ccc(OC(F)(F)F)cc2)cc1 [Compound 167] | 21
O=S(=O)(Nc1ccccn1)c1ccc(OC(F)(F)F)cc1 [Compound 168] | 16
O=C(Nc1ccc(Br)cc1C(F)(F)F)c1cc(Br)ccc1NS(=O)(=O)c1ccc(OC(F)(F)F)cc1 [Compound 169] | 106
COc1cc([N+](=O)[O-])ccc1NC(=O)c1cc(Br)ccc1NS(=O)(=O)c1ccc(OC(F)(F)F)cc1 [Compound 170] | 103
O=C(Nc1ccc(I)cc1F)c1cc(Br)ccc1NS(=O)(=O)c1ccc(OC(F)(F)F)cc1 [Compound 171] | 100
O=C(NCc1cccc(C(F)(F)F)c1)c1cc(Br)ccc1NS(=O)(=O)c1ccc(OC(F)(F)F)cc1 [Compound 172] | 96
O=C(Nc1ccccc1Cl)c1cc(Br)ccc1NS(=O)(=O)c1ccc(Cl)cc1 [Compound 173] | 95
O=C(Nc1ccccn1)c1cc(Br)ccc1NS(=O)(=O)c1ccc(OC(F)(F)F)cc1 [Compound 174] | 84
COc1ccc(NC(=O)c2cc(Br)ccc2NS(=O)(=O)c2ccc(OC(F)(F)F)cc2)c([N+](=O)[O-])c1 [Compound 175] | 78
O=S(=O)(Nc1ccccc1NS(=O)(=O)c1cc(C(F)(F)F)cc(C(F)(F)F)c1)c1cc(C(F)(F)F)cc(C(F)(F)F)c1 [Compound 176] | 36

Same assay, conditions: Table 4, phosphate uptake, read-out: IC50

Structure (SMILES) | IC50 [µM]
O=C(Nc1ccc(OC(F)(F)F)cc1)Nc1ccc(Br)cc1P(=O)(O)O [Compound 177] | < 50
O=C(Nc1cccc(C(F)(F)F)c1)Nc1ccc(Br)cc1P(=O)(O)O [Compound 178] | < 50
O=C(Nc1ccc(Cl)c(Cl)c1)Nc1ccc(Br)cc1P(=O)(O)O [Compound 179] | < 50
O=C(Nc1cc(Cl)cc(Cl)c1)Nc1ccc(Br)cc1P(=O)(O)O [Compound 180] | 51 to 100
O=C(Nc1cc(Cl)cc(C(F)(F)F)c1)Nc1ccc(Br)cc1P(=O)(O)O [Compound 181] | 51 to 100
O=C(Nc1cc(C(F)(F)F)cc(C(F)(F)F)c1)Nc1ccc(Br)cc1P(=O)(O)O [Compound 182] | 51 to 100
O=C(Nc1ccc(Br)cc1P(=O)(O)O)Nc1cccc2ccccc12 [Compound 183] | 51 to 100
O=C(Nc1cc(F)cc(C(F)(F)F)c1)Nc1ccc(Br)cc1P(=O)(O)O [Compound 184] | 101 to 500
O=C(Nc1ccc(Cl)c(C(F)(F)F)c1)Nc1ccc(Br)cc1P(=O)(O)O [Compound 185] | 101 to 500
O=C(Nc1ccccc1-c1ccccc1)Nc1ccc(Br)cc1P(=O)(O)O [Compound 186] | 101 to 500
O=C(Nc1ccc(Br)cc1P(=O)(O)O)Nc1cccc(Cl)c1Cl [Compound 187] | 101 to 500
O=C(Nc1ccc(F)c(C(F)(F)F)c1)Nc1ccc(Br)cc1P(=O)(O)O [Compound 188] | 101 to 500
O=C(Nc1cc(C(F)(F)F)ccc1F)Nc1ccc(Br)cc1P(=O)(O)O [Compound 189] | 101 to 500
Cc1ccc(NC(=O)Nc2ccc(Br)cc2P(=O)(O)O)cc1[N+](=O)[O-] [Compound 190] | 101 to 500
CC(C)c1cccc(C(C)C)c1NC(=O)Nc1ccc(Br)cc1P(=O)(O)O [Compound 191] | 101 to 500
